Assay results reported in US20250041379A1, “METHODS AND COMPOSITIONS FOR THE TREATMENT OF CANCER” (Vigeo Therapeutics, Inc., priority 2021, published 2025).
No end group written: not given here.

System: tumor microenvironment (TME) in pancreatic cancer
Assay: Modulation of the TME in paired tumor biopsies by multiplex ion beam image analysis, pancreatic cancer
Format: in vivo, human
Conditions: 8 pairs of pancreatic cancer biopsies from Parts 1 & 2
Description: FIG. 5A and FIG. 5B are charts showing that VT1021 modulates the TME in pancreatic cancer.
In the “expansion stage” of the VT1021-01 Study, subjects diagnosed with recurrent GBM, pancreatic cancer, ovarian cancer and other solid tumors were enrolled. They were treated with VT1021 at 11.8 mg/kg, twice weekly by IV infusion. The blood samples were collected from the clinical study at pre-treatment, 0, 2, 4, 6 hours post treatment to measure the levels of VT1021 (FIG. 2). The tumor biopsy samples prior to treatment and during treatment were collected from the clinical study to measure expression levels of biomarkers including CD36 and CD47, as well as cell surface markers for immune cell populations in the TME by immunohistochemistry assays (FIG. 3, FIG. 4, FIG. 5). The correlation between days on study and tumor shrinkage versus expression profile of CD36 and CD47 was analyzed (FIG. 4). The general expression profile of CD36 and CD47 has been assessed by IHC on Tumor Tissue Microarrays (TMAs), which contain biopsy samples collected from pancreatic cancer patients. TMAs were purchased from commercial sources, not related to the VT1021-01 clinical study.
FIG. 5A and FIG. 5 B are charts showing that VT1021 modulates the TME in pancreatic cancer. Modulation of the TME by VT1021 in paired biopsies from subjects with pancreatic cancer was assessed by multiplex ion beam image analysis. Representative images from 1 of 3 regions of interest in tumor biopsies from a subject obtained pre-treatment (pre) and on-study (on). […] TSP-1+increased >2 fold in on-study biopsies compared to pre-treatment, both the CTL/Treg and M1/M2 macrophage ratios increased and the percent of M1 macrophages increased >3 fold in the TME after treatment with VT1021.

cyclic DWLPK (also: cyclic, mode of cyclisation not given here) [VT1021, 5-amino acid cyclic peptide from prosaposin; Tsp-1-inducing agent]
CTL/Treg ratio in the TME after treatment: increased | M1/M2 macrophage ratio in the TME after treatment: increased | TSP-1+ mean intensity, increase on-study vs pre-treatment: > 2 fold | percent of M1 macrophages, increase in the TME after treatment: > 3 fold
